Reference: publication PMC6992940 (Bone Reports, 2020)

Target: ERα (estrogen receptor alpha) (Homo sapiens, UniProt P03372)
Test: fluorescence polarization competitor assay
Type: binding

ERα (estrogen receptor alpha), sequence (P03372 whole entry): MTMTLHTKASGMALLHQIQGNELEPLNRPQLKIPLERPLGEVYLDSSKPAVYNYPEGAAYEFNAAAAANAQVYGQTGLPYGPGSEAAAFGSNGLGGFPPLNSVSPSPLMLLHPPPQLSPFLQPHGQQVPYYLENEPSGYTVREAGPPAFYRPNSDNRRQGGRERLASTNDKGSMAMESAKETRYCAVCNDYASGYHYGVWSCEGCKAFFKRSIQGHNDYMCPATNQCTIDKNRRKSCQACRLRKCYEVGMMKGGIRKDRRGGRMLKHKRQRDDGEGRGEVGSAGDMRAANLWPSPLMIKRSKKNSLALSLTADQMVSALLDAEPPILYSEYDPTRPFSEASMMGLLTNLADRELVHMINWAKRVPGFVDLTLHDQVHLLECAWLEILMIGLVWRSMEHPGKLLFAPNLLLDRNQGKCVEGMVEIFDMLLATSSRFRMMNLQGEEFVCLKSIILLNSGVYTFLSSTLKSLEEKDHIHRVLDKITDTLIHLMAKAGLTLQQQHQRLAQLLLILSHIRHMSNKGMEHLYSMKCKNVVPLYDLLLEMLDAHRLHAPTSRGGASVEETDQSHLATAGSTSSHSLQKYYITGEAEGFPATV

Question: With `COc1ccc2c(C(=O)c3ccc(OCCN4CCCCC4)cc3)c(-c3ccc(O)cc3)sc2c1` [compound 2, (2-(4-hydroxyphenyl)-6-methoxybenzo[b]thiophen-3-yl)(4-(2-(piperidin-1-yl)ethoxy)phenyl)methanone] as the compound, how does the IC50 read?
Answer: 183 nM
